What was measured:
in vivo = settings: mouse, brain, sc, 30 mg/kg
C57BL/6J male mice [1] = experiment: Novel object recognition memory (ORM) task after subthreshold training; assay type: in vivo; settings: 24 h test; for long-term memory formation vs vehicle-treated mice, ORM: 3, 10, 30 mg/kg s.c. after 3 min training; for dose-dependent effect on ORM: 3, 10, 30 mg/kg s.c.
Protocol: Training and testing for location-dependent object recognition memory (OLM) and novel object recognition memory (ORM) was carried out as previously described. […] The experimental apparatus was a white rectangular open field (30×23×21.5 cm).
24-h later mice were tested for memory retention (5 min) using the object recognition memory task, in which a familiar object was replaced with a novel one. A discrimination index (DI) above zero indicates a preference for the novel object.

H4K8Ac = experiment: Immunohistochemistry of dorsal hippocampus 2 hours after intrahippocampal infusion; assay type: in vivo, C57BL/6 mice; settings: 1.25 ng/side intrahippocampal infusion
Protocol: (§1) Two weeks after mice were infused with AAV-Cre or two hours after hippocampal infusion of the inhibitor, mice were anesthetized deeply with sodium pentobarbital (100 mg/kg, i.p.) and perfused transcardially with ice-cold PBS, pH 7.4, followed by ice-cold 4% paraformaldehyde in PBS, pH 7.4, using a peristaltic perfusion pump (Fisher Scientific). The brains were removed, postfixed overnight at 4° C., and then transferred to 30% sucrose for 48 hr at 4° C. Brains were frozen and cryocut to 20 μm coronal slices, and sections were stored in 0.1M PBS. Floating sections were rinsed in 0.1% Triton X-100 (Fisher Scientific) in PBS, rinsed in PBS, and then blocked for 1 hr at room temperature in 8% normal goat serum (NGS, Jackson ImmunoResearch Laboratories) with 0.3% Triton X-100 in PBS. Sections were rinsed in PBS and for single labeling they were incubated overnight at 4° C. in 2% NGS, 0.3% Triton X-100 in PBS with primary antibody. The sections were then rinsed in PBS and incubated for 2 hr at room temperature with goat anti-rabbit IgG-FITC secondary antibody (1:1000, Millipore Bioscience International). […]
(§2) Images were acquired and using an Olympus (BX51, Japan) microscope using a 4× or 20× objective, CCD camera (QImaging), and QCapture Pro 6.0 software (QImaging) and quantified with ImageJ software (NIH). […]

neuronal morphology = experiment: DAPI staining of neuronal morphology after intrahippocampal infusion; assay type: in vivo, C57BL/6 mice; settings: 1.25 ng/side intrahippocampal infusion, 2 hours
Protocol: as §1, with “International). Sections were rinsed again in PBS and mounted on slides using ProLong Gold antifade reagent with DAPI (Invitrogen).” for “International).”

HDAC4 = experiment: Immunohistochemistry of dorsal hippocampus 2 hours after intrahippocampal infusion; assay type: in vivo, C57BL/6 mice; settings: 1.25 ng/side intrahippocampal infusion
Protocol: as §1, §2

HDAC2 = biological target: T1, HDAC2 (Mus musculus, UniProt P70288); experiment: as above; assay type: in vivo, C57BL/6 mice; settings: 1.25 ng/side intrahippocampal infusion
T1 construct: from tissue; host or cells: dorsal hippocampus of C57BL/6 mice
Protocol: as §1, §2

CBP^+/+ mice = experiment: OLM task in CBP+/+ mice after intrahippocampal infusion; assay type: in vivo; settings: intrahippocampal 1.25 ng/side after 3 min training, 24 h
Protocol: (§3) To generate a focal deletion, mice were infused with adeno associated virus expressing Cre-recombinase (AAV2/1-Cre; Penn Vector Core, University of Pennsylvania, Philadelphia, Pa.) 2 weeks prior to behavioral procedures. Mice were anesthetized with isoflurane and placed in a digital Just For Mice stereotax (Stoelting, Wood Dale, Ill.). 1.0 μl of virus was injected at a rate of 6 μl/hr via an infusion needle positioned in the dorsal CA1 area of the hippocampus (antereoposterior (AP) −2.0; mediolateral (ML) ±1.5; dorsoventral (DV) −1.5). NCoR homozygous knock-in mice (referred to as DADm mice) were generated on C57BL/6 background using homologous recombination to incorporate a single amino acid substitution (Y478A) in the NCoR deacetylase activation domain (DAD). […]
(§4) All combinations and locations of objects were used in a balanced manner to reduce potential biases due to preference for particular locations or objects. All training and testing trials were videotaped and analyzed by individuals blind to the treatment condition and the genotype of subjects. A mouse was scored as exploring an object when its head was oriented toward the object within a distance of 1 cm or when the nose was touching the object. The relative exploration time was recorded and expressed by a discrimination index [DI=(tnovel−tfamiliar)/(tnovel+tfamiliar)×100]. […]

C57BL/6J male mice [2] = experiment: Location-dependent object recognition memory (OLM) task after subthreshold training; assay type: in vivo; settings: for memory for object location vs vehicle, OLM: 1.25 ng/side intrahippocampal after 3 min training
Protocol: Training and testing for location-dependent object recognition memory (OLM) and novel object recognition memory (ORM) was carried out as previously described. (See, e.g., Roozendaal et al., J Neurosci 30:5037-5046, 2010, the disclosure of which is incorporated herein by reference.) Prior to training, mice were handled 1-2 min for 5 days and were habituated to the experimental apparatus 3 min a day for 3 consecutive days in the absence of objects. The experimental apparatus was a white rectangular open field (30×23×21.5 cm).
(See, Stefanko et al., Proc Natl Acad Sci USA 106:9447-9452, 2009, the disclosures of which are incorporated herein by reference.) During the 24-h or 7-day retention test, mice were placed in the experimental apparatus for 5 min. For object recognition memory (ORM), one copy of the familiar object (A3) and a new object (B1) were placed in the same location as during the training trial. For location-dependent object recognition memory (OLM), one copy of the familiar object (A3) was placed in the same location as during the training trial and one copy of the familiar object (A4) was placed in the middle of the box.
All combinations and locations of objects were used in a balanced manner to reduce potential biases due to preference for particular locations or objects. All training and testing trials were videotaped and analyzed by individuals blind to the treatment condition and the genotype of subjects. A mouse was scored as exploring an object when its head was oriented toward the object within a distance of 1 cm or when the nose was touching the object. The relative exploration time was recorded and expressed by a discrimination index [DI=(tnovel−tfamiliar)/(tnovel+tfamiliar)×100].
Animals were tested for short-term memory 90 min after training.
In addition, a separate group of mice were given a 3 min training period and then a 7 day retention test.

CBP^KIX/KIX mice = experiment: OLM task in CBP KIX/KIX mutant mice after intrahippocampal infusion; assay type: in vivo; settings: intrahippocampal 1.25 ng/side after 3 min training, 24 h
Protocol: as §3, §4

mice [3] = experiment: Cocaine-primed reinstatement of conditioned place preference; assay type: in vivo; settings: cocaine prime 10 mg/kg i.p.
Protocol: Conditioned place preference experiments were similar to those described in Malvaez et al. (Malvaez, M., et al., Biological Psychiatry, 67, 36-43, 2010, the disclosure of which is incorporated herein by reference). Mice were briefly handled for 3 consecutive days (days 1-3). Baseline preferences were assessed by placing the animals in the three-chambered apparatus for 15 min (Pretest, day 4). Time spent in each compartment was recorded. Conditioning took place over the next 4 days with the guillotine doors closed, confining animals to a specific compartment for 30 min (days 5-8). An unbiased paradigm was used such that half of the animals were injected with cocaine (20 mg/kg, i.p.) before placement in the checkered compartment and half were injected with cocaine before placement in the white compartment (CS+). […] Forty-eight hours after the last conditioning session, animals had access to all 3 compartments and preference was assessed in a drug-free state (15 min, Posttest; day 10). […]
In an experiment with a similar design as described above, animals were confined to a specific compartment and given cocaine (5 mg/kg, i.p.) or saline on alternating days. […] Forty-eight hours after the last conditioning session, animals had free access to all 3 compartments and preference was assessed in a drug-free state (15 min, Posttest; day 10). […]

mice [4] = experiment: Acquisition of cocaine conditioned place preference, treatment after conditioning sessions; assay type: in vivo; settings: 10 mg/kg s.c. following each conditioning session; cocaine 5 mg/kg i.p.
Protocol: In an experiment with a similar design as described above, animals were confined to a specific compartment and given cocaine (5 mg/kg, i.p.) or saline on alternating days. Immediately following the conditioning session (30 min), mice received an injection of RGFP966 (10 mg/kg, s.c.) or vehicle and then returned to the home cage. Forty-eight hours after the last conditioning session, animals had free access to all 3 compartments and preference was assessed in a drug-free state (15 min, Posttest; day 10). CPP score indicates preference by mean±S.E.M. of time in CS+ minus CS− compartment. All groups extinguished the preference for the CS+ compartment by extinction day 6. The following day, animals received a cocaine prime (10 mg/kg, i.p.) and were placed in the test chamber (Reinstatement).
In this test, mice were conditioned with two pairings of a low dose of cocaine (5 mg/kg, i.p.) and saline. Following each conditioning session, mice received RGFP966 (10 mg/kg, s.c.) or vehicle.

mice [5] = experiment: Extinction of cocaine conditioned place preference (CPP); assay type: in vivo; settings: 10 mg/kg s.c. immediately following Posttest; Ext2 and Ext3
Protocol: Conditioned place preference experiments were similar to those described in Malvaez et al. (Malvaez, M., et al., Biological Psychiatry, 67, 36-43, 2010, the disclosure of which is incorporated herein by reference). Mice were briefly handled for 3 consecutive days (days 1-3). Baseline preferences were assessed by placing the animals in the three-chambered apparatus for 15 min (Pretest, day 4). Time spent in each compartment was recorded. Conditioning took place over the next 4 days with the guillotine doors closed, confining animals to a specific compartment for 30 min (days 5-8). An unbiased paradigm was used such that half of the animals were injected with cocaine (20 mg/kg, i.p.) before placement in the checkered compartment and half were injected with cocaine before placement in the white compartment (CS+). The next day, mice received 0.9% saline injection (1.0 ml/kg, i.p.) before placement in the alternate compartment (CS−). Injections were alternated for subsequent conditioning sessions. Forty-eight hours after the last conditioning session, animals had access to all 3 compartments and preference was assessed in a drug-free state (15 min, Posttest; day 10). This is also the first of the extinction sessions which occurred daily until extinction criteria were met. […]

T1 sequence (P70288 whole entry, the tested form may be a part): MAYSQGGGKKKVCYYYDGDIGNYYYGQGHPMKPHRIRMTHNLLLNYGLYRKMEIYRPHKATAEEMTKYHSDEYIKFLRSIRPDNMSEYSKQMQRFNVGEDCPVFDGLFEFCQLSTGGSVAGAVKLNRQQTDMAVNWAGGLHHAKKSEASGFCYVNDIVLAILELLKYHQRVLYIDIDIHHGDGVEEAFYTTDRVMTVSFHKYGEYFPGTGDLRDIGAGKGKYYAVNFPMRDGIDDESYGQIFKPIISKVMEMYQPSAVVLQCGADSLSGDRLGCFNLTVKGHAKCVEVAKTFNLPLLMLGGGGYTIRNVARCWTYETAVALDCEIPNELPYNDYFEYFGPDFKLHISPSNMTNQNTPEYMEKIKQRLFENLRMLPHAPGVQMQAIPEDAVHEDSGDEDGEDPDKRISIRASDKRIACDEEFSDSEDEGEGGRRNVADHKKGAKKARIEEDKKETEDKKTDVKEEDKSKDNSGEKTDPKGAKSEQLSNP

Structure (SMILES)	Cmax (in vivo) [nM]	long-term memory formation vs vehicle-treated mice, ORM (C57BL/6J male mice [1])	dose-dependent effect on ORM (C57BL/6J male mice [1])	immunoreactivity for H4K8Ac vs vehicle (H4K8Ac)	neuronal morphology (DAPI staining) vs vehicle (neuronal morphology)	HDAC4 nuclear expression vs vehicle (HDAC4)	HDAC2 expression vs vehicle (HDAC2)	memory for novel object location vs vehicle, OLM (CBP^+/+ mice)	memory for object location vs vehicle, OLM (C57BL/6J male mice [2]; 24 hours)	memory for object location vs vehicle, OLM (C57BL/6J male mice [2]; 7 day retention test)	preference for the object in the novel location vs vehicle, OLM (C57BL/6J male mice [2]; 30 mg/kg s.c. post-training, 24 h retention test)	effect on long-term memory, OLM (CBP^KIX/KIX mice)	reinstatement of preference after cocaine prime (mice [3]; 3 mg/kg received during extinction)	reinstatement of preference after cocaine prime (mice [3]; 10 mg/kg received during extinction)	effect on cocaine conditioned place preference (Posttest) (mice [4])	extinction of preference for the cocaine-paired compartment (CPP score) (mice [5])
Cc1ccc(C(=O)NCCCCCC(=O)Nc2ccc(F)cc2N)cc1 [RGFP136, N-(6-(2-amino-4-fluorophenylamino)-6-oxohexyl)-4-methylbenzamide]	~1700	significantly enhanced	Significant dose-dependent effects	increase	does not alter neuronal morphology	loss of HDAC4 nuclear expression	unchanged	significantly greater memory	greater memory	significantly greater memory	significant preference	no effect	–	–	–	–
Nc1cc(F)ccc1NC(=O)/C=C/c1cnn(CC=Cc2ccccc2)c1 [RGFP966, (E)-N-(2-amino-4-fluorophenyl)-3-(1-cinnamyl-1H-pyrazol-4-yl)acrylamide]	–	significantly enhanced	lack of an observed dose effect	–	–	–	–	–	–	–	–	–	significant preference	did not reinstate a preference	does not alter	rapid extinction

— patent US20130210899A1, “Method and Therapeutic for the Treatment and Regulation of Memory Formation” (The Regents of the University of California, priority 2010, published 2013)
